Patent US12459891B2, “1-[1-(4-benzyloxy-3,5-difluoro-benzoyl)-4-fluoro-pyrrolidine-2-carbonyl]-pyrrolidine-2-carbonitrile” (ACCURE THERAPEUTICS, S.L., priority 2020, dated 2025)

Target: T1, 5-HT1A receptor (Homo sapiens, UniProt P08908)
T1 construct: purchased Cerep/Eurofins SafetyScreen44 panel
T1 sequence (P08908 1-422): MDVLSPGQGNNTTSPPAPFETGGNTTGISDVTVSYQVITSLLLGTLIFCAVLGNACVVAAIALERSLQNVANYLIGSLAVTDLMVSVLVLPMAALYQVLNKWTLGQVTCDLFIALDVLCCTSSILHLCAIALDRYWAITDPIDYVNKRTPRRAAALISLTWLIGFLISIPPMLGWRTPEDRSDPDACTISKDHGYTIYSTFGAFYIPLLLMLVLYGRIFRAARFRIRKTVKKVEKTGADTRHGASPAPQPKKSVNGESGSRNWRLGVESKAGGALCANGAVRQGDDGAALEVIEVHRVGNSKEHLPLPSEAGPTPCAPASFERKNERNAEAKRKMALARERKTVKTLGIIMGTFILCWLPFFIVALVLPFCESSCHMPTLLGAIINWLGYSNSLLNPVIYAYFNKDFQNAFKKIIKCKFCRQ
Experiment: Selectivity profile, radioligand binding (SafetyScreen44 panel)
Settings: 100 μM compound (1% DMSO); read-out: % inhibition of control specific binding
Method: The experiment was performed using the SafetyScreen44® panel from Cerep/Eurofins. Compounds were tested at a concentration 100 μM (in 1% DSMO).
Compound binding was calculated as a percentage inhibition of the binding of a radioactively labeled ligand specific for each target.
The results are expressed as a percent inhibition of control specific binding
[formula] obtained in the presence of tested compounds.
Results showing an inhibition higher than 50% are considered to represent significant effects of the test compounds.

COc1cc(C(=O)N2CC(F)(F)C[C@H]2C(=O)N2CCC[C@H]2C#N)cc(OC)c1OCc1ccccc1 [Comp Ex. 3, (S)-1-((2S)-1-(4-(benzyloxy)-3,5-dimethoxybenzoyl)-4,4-difluoropyrrolidine-2-carbonyl)pyrrolidine-2-carbonitrile]
inhibition at 100 µM: 64.6%

N#C[C@@H]1CCCN1C(=O)[C@@H]1C[C@@H](F)CN1C(=O)c1cc(F)c(OCc2ccccc2)c(F)c1 [Example 1, (S)-1-((2S,4R)-1-(4-(benzyloxy)-3,5-difluorobenzoyl)-4-fluoropyrrolidine-2-carbonyl)pyrrolidine-2-carbonitrile]
inhibition at 100 µM: -6.3%
